SMILES strings stand for the structures.

One may read the IC50 as the concentration that inhibits the measured activity by half.

The target in the experiment is Tripeptidyl-peptidase 2 (Rattus norvegicus, UniProt Q64560). The experiment in a line: Inhibition of Tripeptidyl-peptidase II purified from a rat liver post-lysosomal fraction.
Sequence of Tripeptidyl-peptidase 2 (Q64560 whole entry): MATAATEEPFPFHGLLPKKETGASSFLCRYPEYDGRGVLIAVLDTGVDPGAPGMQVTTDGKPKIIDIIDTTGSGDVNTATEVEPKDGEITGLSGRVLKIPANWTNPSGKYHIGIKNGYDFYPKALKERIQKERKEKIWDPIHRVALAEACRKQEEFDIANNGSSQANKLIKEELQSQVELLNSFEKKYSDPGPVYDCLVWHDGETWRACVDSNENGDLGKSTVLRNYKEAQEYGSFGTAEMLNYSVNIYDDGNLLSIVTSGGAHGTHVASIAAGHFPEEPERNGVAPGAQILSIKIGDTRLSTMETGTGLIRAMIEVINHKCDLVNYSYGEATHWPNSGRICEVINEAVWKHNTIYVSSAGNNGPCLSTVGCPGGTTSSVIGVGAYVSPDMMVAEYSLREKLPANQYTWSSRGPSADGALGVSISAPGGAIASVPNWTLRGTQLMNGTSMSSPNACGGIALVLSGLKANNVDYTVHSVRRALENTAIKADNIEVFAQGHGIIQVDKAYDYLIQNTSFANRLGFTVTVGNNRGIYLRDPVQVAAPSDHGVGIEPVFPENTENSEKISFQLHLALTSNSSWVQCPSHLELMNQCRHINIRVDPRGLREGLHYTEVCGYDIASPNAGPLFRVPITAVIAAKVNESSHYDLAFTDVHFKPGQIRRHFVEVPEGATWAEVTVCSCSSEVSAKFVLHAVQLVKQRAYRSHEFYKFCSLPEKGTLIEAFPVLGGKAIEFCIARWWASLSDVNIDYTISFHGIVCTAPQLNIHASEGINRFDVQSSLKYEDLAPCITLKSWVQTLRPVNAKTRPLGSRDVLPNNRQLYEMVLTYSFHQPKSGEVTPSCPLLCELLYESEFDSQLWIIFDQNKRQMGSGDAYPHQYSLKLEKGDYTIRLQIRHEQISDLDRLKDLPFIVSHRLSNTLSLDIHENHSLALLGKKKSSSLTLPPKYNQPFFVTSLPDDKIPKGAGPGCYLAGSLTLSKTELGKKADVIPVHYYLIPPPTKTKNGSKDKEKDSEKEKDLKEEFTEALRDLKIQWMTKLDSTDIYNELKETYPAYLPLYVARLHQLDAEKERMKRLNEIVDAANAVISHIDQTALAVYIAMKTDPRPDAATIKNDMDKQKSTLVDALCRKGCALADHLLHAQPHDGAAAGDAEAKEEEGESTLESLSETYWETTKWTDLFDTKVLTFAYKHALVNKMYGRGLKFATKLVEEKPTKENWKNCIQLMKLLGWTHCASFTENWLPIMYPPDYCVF
For the compound `CCCc1cnc([C@@H]2Cc3ccccc3N2C(=O)c2ccccc2N)[nH]1`, the IC50 was > 10000 nM. In the case of `CCCc1nnc([C@@H]2Cc3ccccc3N2C(=O)CN)o1` it was 2200 nM; in that of `CCc1cnc([C@@H]2Cc3ccccc3N2C[C@H](C)N)[nH]1`, > 10000 nM; in that of `CCCc1c[nH]c([C@@H]2Cc3cc(OC)ccc3N2C(=O)CN)n1`, 70 nM. Consider `CCCc1c[nH]c([C@@H]2Cc3ccccc3N2C(=O)c2c[nH]cn2)n1`, for which the IC50 was > 10000 nM. `CCCc1[nH]c([C@@H]2Cc3ccccc3N2C(=O)CN)nc1C(=O)OCC`: the IC50 was 210 nM. `CCCc1cnc([C@@H]2Cc3ccccc3N2C(=O)[C@H]2CCCN2)[nH]1` showed an IC50 of 1400 nM.

In the case of `CCCc1nnc([C@@H]2Cc3ccccc3N2C(=O)CN)[nH]1`, the IC50 is > 10000 nM.

Compound `CCCc1cnc([C@@H]2Cc3ccccc3N2C(=O)[C@@H](N)Cc2ccccc2)[nH]1` yielded an IC50 of 2300 nM. This counts as single-digit micromolar. As for `C[C@H](N)C(=O)N1c2ccccc2C[C@H]1c1nc2ccccc2[nH]1`, the IC50 came out at 1400 nM.

Compound `CCCc1cnc([C@@H]2Cc3cc(F)ccc3N2C(=O)CN)[nH]1` gave a half-inhibitory concentration (IC50) of 46 nM. For the compound `CCCc1cnc([C@@H]2Cc3ccccc3N2C(=O)c2cccc([N+](=O)[O-])c2)[nH]1`, the IC50 was > 10000 nM. Compound `CCC(N)C(=O)N1c2ccccc2C[C@H]1c1nc2ccccc2[nH]1` (stereo partly specified) showed an IC50 of 450 nM. As to `CCc1cn(C)c([C@@H]2Cc3ccccc3N2C(=O)CN)n1`, the IC50 was 2100 nM. Against the preceding compound, the IC50 is about 4.7-fold higher. `CCCc1c[nH]c([C@@H]2Cc3cc(OC)ccc3N2C(=O)[C@H](C)N)n1` showed a 50% inhibitory concentration (IC50) of 16 nM. Compared with the last compound, the IC50 is about 130-fold lower. In the case of `CCCc1c[nH]c([C@@H]2Cc3ccccc3N2C(=O)[C@@H](N)C(C)C)n1` it was 20 nM. In the case of `CCCc1c[nH]c([C@@H]2Cc3ccccc3N2C(=O)[C@H](N)CC)n1` it was 4 nM. Turning to `CCc1cnc([C@@H]2Cc3ccccc3N2C(=O)CN)n1C`, the IC50 is > 10000 nM. Take `CCc1c[nH]c([C@@H]2Cc3ccccc3N2C(=O)[C@H](C)N)n1`: the half-maximal inhibitory concentration (IC50) was found to be 23 nM.

For the compound `CCCc1c[nH]c([C@@H]2Cc3ccccc3N2C(=O)CN)n1`, it took 36 nM to reach half-maximal inhibition (IC50). `CCCc1c[nH]c([C@@H]2Cc3ccccc3N2C(=O)[C@@H](N)CCC)n1` displayed an IC50 of 4 nM. Against the preceding compound, the IC50 is about 9-fold lower. The same measure for `CCCc1c[nH]c([C@@H]2Cc3ccccc3N2C(=O)c2cccc(N)c2)n1`: > 10000 nM. As to `CCCc1nc([C@@H]2Cc3ccccc3N2C(=O)CN)[nH]c1C(N)=O`, inhibition was half-maximal at 200 nM (IC50). As to `CCc1cnc([C@@H]2Cc3ccccc3N2C(=O)CN)s1`, half-maximal inhibition (IC50) required 7700 nM.

As to `CCCc1c[nH]c([C@@H]2Cc3ccccc3N2C(=O)[C@H](C)NC)n1`, the concentration for half-maximal inhibition (IC50) is > 10000 nM.

With `NCC(=O)N1c2ccccc2C[C@H]1c1nc(-c2ccccc2)c[nH]1`, the IC50 was > 10000 nM. `CCCCc1cnc([C@@H]2Cc3ccccc3N2C(=O)CN)[nH]1`: the midpoint of inhibition, the IC50, lay at 50 nM. This lies in the double-digit nanomolar range. Turning to `CCCc1cnc([C@@H]2Cc3cc(Cl)ccc3N2C(=O)[C@H](C)N)[nH]1`, the IC50 was determined as 5 nM.

The compound `CCc1c[nH]c([C@@H]2Cc3ccccc3N2C(=O)CN)n1` came in with an IC50 of 194 nM. Compound `CCCc1[nH]c([C@@H]2Cc3ccccc3N2C(=O)CN)nc1C(=O)NCC(=O)OC` showed an IC50 of 135 nM. Regarding `CCCc1c[nH]c([C@@H]2Cc3cc(Cl)ccc3N2C(=O)CN)n1`, the IC50 worked out at 11 nM.

On to `CCCc1[nH]c([C@@H]2Cc3ccccc3N2C(=O)CN)nc1C`, for which the midpoint of inhibition, the IC50, lay at 55 nM.

In the case of `CCCc1cnc([C@@H]2Cc3ccccc3N2C(=O)c2ccccc2[N+](=O)[O-])[nH]1`, the concentration for half-maximal inhibition (IC50) is > 10000 nM. Regarding `CCCc1cnc([C@@H]2Cc3ccccc3N2C(=O)CCN)[nH]1`, the IC50 is > 10000 nM.

The compound `CCCc1c[nH]c([C@@H]2CCc3ccccc3N2C(=O)[C@H](C)N)n1` (stereo in doubt; form 1) yielded an IC50 of 800 nM.

Consider `CCCc1c[nH]c([C@@H]2CCc3ccccc3N2C(=O)[C@H](C)N)n1` (stereo in doubt; form 2), for which the IC50 turned out to be 400 nM.

The values above are taken from ChEMBL document CHEMBL1136499, “Tripeptidyl-peptidase II (TPP II) inhibitory activity of (S)-2,3-dihydro-2-(1H-imidazol-2-yl)-1H-indoles, a systematic SAR evaluation. Part 2” (Bioorg Med Chem Lett, 2003).
